From patent US20260042769A1, “TRIARYL AGONISTS OF ALPHA-2 ADRENERGIC RECEPTORS” (ALCEPTOR THERAPEUTICS, INC., priority 2023, published 2026)

Target: T1, human ADRA2B receptor (Homo sapiens, UniProt P18089)
T1 construct: expressed in transfected cells
T1 sequence (P18089 1-450): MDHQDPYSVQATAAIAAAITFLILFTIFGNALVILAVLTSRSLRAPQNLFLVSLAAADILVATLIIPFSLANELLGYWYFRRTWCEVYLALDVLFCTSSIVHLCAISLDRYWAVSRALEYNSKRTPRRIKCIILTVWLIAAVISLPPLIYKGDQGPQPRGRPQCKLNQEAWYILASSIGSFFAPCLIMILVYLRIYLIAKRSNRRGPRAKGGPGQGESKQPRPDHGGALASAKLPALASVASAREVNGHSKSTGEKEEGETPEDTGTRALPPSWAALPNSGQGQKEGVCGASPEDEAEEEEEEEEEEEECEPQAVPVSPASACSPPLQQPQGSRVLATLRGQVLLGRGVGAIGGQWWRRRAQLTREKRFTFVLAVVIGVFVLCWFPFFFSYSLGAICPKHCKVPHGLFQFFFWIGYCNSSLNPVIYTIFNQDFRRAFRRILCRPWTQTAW
Assay: GTPγS agonist assay, ADRA2B receptor
Assay type: biochemical
Conditions: read-out: GTPase - Human Alpha2B EC50
Method in brief: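 CHO-K1 membranes stably expressing human ADRA2B (5 μg protein) in 20 mM HEPES, 10 mM MgCl2, 200 mM NaCl with GDP, preincubated 10 min at room temperature with compound. Binding reaction 1 h at 37° C; bound label collected on GF/C filters, washed, read by scintillation counting.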

Structure (SMILES) | EC50 [nM]
Cc1cccc([C@@H](Cc2cnco2)c2c[nH]cn2)c1C [Compound 365, 5-[(R)-2-(4-imidazolyl)-2-(2,3-xylyl)ethyl]-1,3-oxazole] | > 500
Cc1cccc([C@H](Cc2cncs2)c2c[nH]cn2)c1C [Compound 129, 5-[(S)-2-(4-imidazolyl)-2-(2,3-xylyl)ethyl]-1,3-thiazole] | < 10
Cc1cccc([C@@H](Cc2cncs2)c2c[nH]cn2)c1C [Compound 128, 5-[(R)-2-(4-imidazolyl)-2-(2,3-xylyl)ethyl]-1,3-thiazole] | 50 to 500
COc1cncc(CC(c2cnc[nH]2)c2cccc(C)c2C)n1 (centres unmarked) [Compound 89, 2-[2-(2,3-dimethylphenyl)-2-(1H-imidazol-4-yl)ethyl]-6-methoxy-pyrazine] | < 10
COc1cc(OC)nc(CC(c2c[nH]cn2)c2cccc(C)c2C)n1 (centres unmarked) [Compound 91, 2-[2-(2,3-dimethylphenyl)-2-(1H-imidazol-4-yl)ethyl]-4,6-dimethoxy-pyrimidine] | < 10
FC(F)Oc1cccc([C@H](Cc2ccccn2)c2cnc[nH]2)c1 [Compound 37] | 10 to 50
c1cc2c(c([C@H](Cc3cnn(C4CC4)c3)c3c[nH]cn3)c1)OCC2 [Compound 290, 4-[(S)-2-(2,3-dihydro-1-benzofuran-7-yl)-2-(4-imidazolyl)ethyl]-1-] | < 10
Cc1nc(C[C@H](c2c[nH]cn2)c2cccc(C)c2C)cs1 [Compound 103, 4-[(S)-2-(4-imidazolyl)-2-(2,3-xylyl)ethyl]-2-methyl-1,3-thiazole] | > 500
Cc1cccc(C(Cc2cocn2)c2c[nH]cn2)c1C (centres unmarked) [Compound 126, 4-[2-(4-imidazolyl)-2-(2,3-xylyl)ethyl]-1,3-oxazole] | < 10
Cc1cncc(C[C@@H](c2cnc[nH]2)c2cccc(C)c2C)n1 [Compound 83, 2-[(2R)-2-(2,3-dimethylphenyl)-2-(1H-imidazol-4-yl)ethyl]-6-methylpyrazine] | < 10
Cc1cc(C[C@@H](c2cnc[nH]2)c2cccc(C)c2C)n(C)n1 [Compound 69, 5-[(2R)-2-(2,3-dimethylphenyl)-2-(1H-imidazol-4-yl)ethyl]-1,3-dimethyl-1H-pyrazole] | < 10
Cc1cccc([C@H](Cc2cccnn2)c2cnc[nH]2)c1C [Compound 55, 3-[(2S)-2-(2,3-dimethylphenyl)-2-(1H-imidazol-4-yl)ethyl] pyridazine] | 10 to 50
Cc1cccc([C@@H](Cc2ccc(=O)[nH]n2)c2cnc[nH]2)c1C [Compound 77, 6-[(2R)-2-(2,3-dimethylphenyl)-2-(1H-imidazol-4-yl)ethyl]-2,3-dihydropyridazin-3-one] | < 10
c1ccc(C[C@@H](c2cnc[nH]2)c2cccc3c2COC3)nc1 [Compound 46, 2-[(2R)-2-(1,3-dihydro-2-benzofuran-4-yl)-2-(1H-imidazol-4-yl)ethyl] pyridine] | > 500
FC(F)(F)Oc1cccc([C@H](Cc2ccccn2)c2cnc[nH]2)c1 [Compound 35, 2-[(2S)-2-(1H-imidazol-4-yl)-2-[3-(trifluoromethoxy)phenyl]ethyl] pyridine] | > 500
c1cncc(CC(c2cnc[nH]2)c2cccc3c2CCO3)c1 (centres unmarked) [Compound 57, 3-[2-(2,3-dihydro-1-benzofuran-4-yl)-2-(1H-imidazol-4-yl)ethyl] pyridine] | > 500
COc1nccc(C[C@H](c2c[nH]cn2)c2cccc(C)c2C)n1 [Compound 53, 4-[(2S)-2-(2,3-dimethylphenyl)-2-(1H-imidazol-4-yl)ethyl]-2-methoxy-pyrimidine] | < 10
Cc1cccc([C@H](Cc2cscn2)c2c[nH]cn2)c1C [Compound 120, 4-[(S)-2-(4-imidazolyl)-2-(2,3-xylyl)ethyl]-1,3-thiazole] | > 500
COc1cccc(C[C@H](c2cccc(C)c2)c2cnc[nH]2)n1 [Compound 24, 2-[(2R)-2-(1H-imidazol-4-yl)-2-(3-methylphenyl)ethyl]-6-methoxypyridine] | > 500
Cc1cccc(C(Cc2ncccn2)c2cnc[nH]2)c1C (centres unmarked) [Compound 93, 2-[2-(2,3-dimethylphenyl)-2-(1H-imidazol-4-yl)ethyl] pyrimidine] | 50 to 500
Cc1cccc([C@@H](Cc2cccnc2)c2cnc[nH]2)c1Cl [Compound 61, 3-[(2R)-2-(2-chloro-3-methylphenyl)-2-(1H-imidazol-4-yl)ethyl]pyridine] | 50 to 500
COc1cccc(C[C@@H](c2cnc[nH]2)c2cccc3c2CCO3)n1 [Compound 19, 2-[(2R)-2-(2,3-dihydro-1-benzofuran-4-yl)-2-(1H-imidazol-4-yl)ethyl]-6-methoxypyridine] | 10 to 50

The remaining lines, values ahead:

EC50 [nM] | Structure (SMILES)
< 10 | COc1ncc(C[C@H](c2c[nH]cn2)c2cccc(Cl)c2C)cn1 [Compound 109, 5-[(S)-2-(3-chloro-2-tolyl)-2-(4-imidazolyl)ethyl]-2-methoxy-pyrimidine]
< 10 | Cc1cc(C[C@H](c2c[nH]cn2)c2cccc(C)c2C)no1 [Compound 136, 3-[(S)-2-(4-imidazolyl)-2-(2,3-xylyl)ethyl]-5-methyl-isoxazole]
> 500 | FC(F)(F)c1ccc(C(Cc2cccnn2)c2c[nH]cn2)c(Cl)c1 (centres unmarked) [Compound 201, 3-{2-[2-chloro-4-(trifluoromethyl)phenyl]-2-(4-imidazolyl)ethyl} pyridazine]
10 to 50 | COc1cccc(C(Cc2ccnc(C)n2)c2c[nH]cn2)c1C (centres unmarked) [Compound 149, 4-[2-(4-imidazolyl)-2-(3-methoxy-2-tolyl)ethyl]-2-methylpyrimidine]
< 10 | Cc1csc(CC(c2c[nH]cn2)c2cccc(C)c2C)n1 (centres unmarked) [Compound 132, 2-[2-(4-imidazolyl)-2-(2,3-xylyl)ethyl]-4-methyl-1,3-thiazole]
< 10 | COc1cccc(C[C@@H](c2c[nH]cn2)c2cccc(Cl)c2Cl)n1 [Compound 98, 4-[(R)-1-(2,3-dichlorophenyl)-2-(6-methoxy-2-pyridyl)ethyl] imidazole]
> 500 | Cc1nccc(CC(c2c[nH]cn2)c2cccc3ncoc23)n1 (centres unmarked) [Compound 338, 7-[1-(4-imidazolyl)-2-(2-methyl-4-pyrimidinyl)ethyl]-1,3-benzoxazole]
50 to 500 | FC1(F)Oc2cccc(C(Cc3ccccn3)c3c[nH]cn3)c2O1 (centres unmarked) [Compound 115, 2,2-difluoro-4-[1-(4-imidazolyl)-2-(2-pyridyl)ethyl]-2H-1,3-benzodioxole]
10 to 50 | Cc1cccc([C@H](Cc2cccnn2)c2c[nH]cn2)c1Cl [Compound 213, 3-[(S)-2-(2-chloro-3-tolyl)-2-(4-imidazolyl)ethyl] pyridazine]
> 500 | CCOc1c(F)cccc1C(Cc1cccnn1)c1c[nH]cn1 (centres unmarked) [Compound 231, 3-[2-(2-ethoxy-3-fluorophenyl)-2-(4-imidazolyl)ethyl] pyridazine]
> 500 | COc1cccc(C(Cc2cccnn2)c2c[nH]cn2)c1F (centres unmarked) [Compound 360, 3-[2-(2-fluoro-3-methoxyphenyl)-2-(4-imidazolyl)ethyl]pyridazine]
< 10 | COc1cccc(C[C@H](c2c[nH]cn2)c2cccc3c2OCC3)n1 [Compound 16, 2-[(2S)-2-(2,3-dihydro-1-benzofuran-7-yl)-2-(1H-imidazol-4-yl)ethyl]-6-methoxypyridine]
> 500 | COc1cccc(CC(c2c[nH]cn2)c2ccnc(C)c2C)n1 (centres unmarked) [Compound 13, 4-[1-(1H-imidazol-4-yl)-2-(6-methoxypyridin-2-yl)ethyl]-2,3-dimethylpyridine]
